# Assay results reported in patent publication US20100130604A1, “USE OF ROSMARINIC ACID IN MANUFACTURE OF MEDICAMENTS FOR TREATING OR PREVENTING HEPATIC AND RENAL DISEASES” (SHANGDONG LUYE NATURAL DRUG RESEARCH AND DEVELOPMENT CO., …, priority 2006, published 2010).
# Like-named read-outs stand apart in the source and are kept apart here.
# Legend:
# Type in all cases: cell-based
# [1] = system: HSC-T6 cells; assay: Inhibitory effect of RA on HSC-T6 cell growth (MTT); conditions: for inhibition at 0.1 µg/mL / inhibition at 1 µg/mL / inhibition at 10 µg/mL / inhibition at 50 µg/mL / inhibition at 100 µg/mL: HSC-T6, read-out: Inhibition rate (%); for inhibition at 0.1 µg/mL: 0.1 mg/L; for inhibition at 1 µg/mL: 1 mg/L; for inhibition at 10 µg/mL: 10 mg/L; for inhibition at 50 µg/mL: 50 mg/L; for inhibition at 100 µg/mL: 100 mg/L
# From the text: Cells and experimental groups: HSC cell line was HSC-T6 (Shanghai Biosis Biotechnology Co. Ltd.), with the phenotype of active HSC. The cells were divided into groups for 0, 2.5, 5, 10, 20, and 40 μmol·L^−1 of RA. MTT method (Ye T and Liu X C, Effect of Pentoxifilline on Proliferation of Mesangial Cell Cultured in glucose-rich Medium and on CTGF Expression, Chinese Pharmacological Bulletin, 2004, 20(8): 883-885) was used to determine the effective RA concentration. Effects of RA on HSC-T6 proliferation and CTGF expression were examined.
# (§1) A 1000 mg/L stock solution of RA in DMEM medium was prepared, and filtered through 0.22 μm microfilter to remove bacteria. The stock was then aliquoted in appropriate containers and stored at −20° C. in dark. It is good for use within 2 weeks. DMEM supplemented with 2% fetal bovine serum (FBS) was used to dilute the stock to desired concentrations before use.
# HSC-T6 cells were cultured in DMEM supplemented with 100 U·mL^−1 penicillin, 100 U·mL^−1 streptomycin, and 10% FBS at 37° C., 5% CO2, and saturated humidity. Medium was changed every other day. The culture was digested with 0.002% EDTA and 0.25% trypsin at 80-90% confluence. And the cells were passaged at 1:4.
# HSC-T6 cells at logarithmic phase after thawed were digested with trypsin and seeded to 96-well plate in DMEM supplemented with 5% FBS at the density of 1×10^4. After 24 hours culture, different concentrations of RA were added according to table 1. Each concentration of RA was added to 6 wells. Blank wells were designed to serve as control. […] The supernatant was discarded after 4 hours of incubation, and […] of dimethyl sufoxide (DMSO) was added to each well to obtain cell lysate, which was then shaken well before detected for OD value on ELISA reader (492 nm). Cell growth inhibition rates were calculated.
# [2] = system: CTGF mRNA; assay: RT-PCR detection of CTGF mRNA expression in HSC-T6; conditions: for CTGF mRNA expression rate (%): control 98.5
# Procedure: Total RNA was extracted from the cell lysate obtained in section 2.3 according the manufacturer's instructions with UNIQ-10 column total RNA extraction kit. A UV spectrophotometer was used to measure the concentration and purity. This was repeated three times and the total RNA concentration was calculated.
# Reaction system: 1 μL of RT product; 10 μL of 2×PCR Master; 1 μL of each of sense primer and anti-sense primer; added double distilled water to 20 μL.
# Sense primer: 5′-[…]-3′;
# Anti-sense primer: 5′-[…]-3′; primer length of 383 bp;
# Internal standard GAPDH (Kangcheng Bio-tech Inc.), with sense primer as 5′-[…]-3′, anti-sense primer as 5′-[…]-3′, and length of 452 bp;
# Reaction conditions: pre-denature at 94° C. for 2 min, denature at 94° C. for 45 s, anneal at 54.9° C. for 30 s, extend at 72° C. for 60 s, extend at 72° C. for 10 min after 35 cycles and detect with 1.2% agarose gel electrophoresis. Scan with gel image system and calculate the ratio of gray scale between CTGF and GAPDH as an indicator of CTGF expression.
# According to the results from the MTT method, groups of 0, 10, and 50 mg/L RA were selected and subjected to RT-PCR.
# [3] = system: proximal tubular epithelial cells (PTECs); assay: Proliferation of PTECs cultured in glucose-rich medium (MTT); conditions: for OD value: 72 h, 570 nm
# Procedure: as §1, with “darkness.” for “dark.”
# Remove frozen vials storing PTECs from liquid nitrogen, thaw in water bath at 37° C. for 5 min, centrifuge at 1000 r·min^−1 for 5 min, and discard the supernatant. Blow up the cells with culture medium and transfer them into flasks for static culture. The medium was DMEM supplemented with 10 v % FBS, 1×10^5 U·L^−1 penicillin, 100 mg·L^−1 streptomycin. The cells are cultured at 37° C., 5% CO2, and saturated humidity for 2-3 days before 0.25% trypsin were used to digest the cells which were then passaged.
# PTEC cells at logarithmic phase were seeded to 96-well plate at the density of 1×10^5/mL. The medium was replaced with serum-free DMEM 24 hours later and the cell culture was cultured statically for 24 hours. Discard the supernatant, dose the wells according to table 3: normal control group (NG, 5 mmol·L^−1), high glucose group (HG, 30 mmol·L^−1), NG+10 mg/L RA group, NG+50 mg/L of RA group, HG+10 mg/L of RA group, HG50 mg/L of RA group, with 6 wells in each group. Incubate for 72 hours respectively. Add 20 μL of MTT (5 mg·mL^−1) to each well 4 hours before the experiment is terminated. Remove supernatant 4 hours later, and 150 μL of DMSO was added to each well, shake for 10 min and use ELISA reader to determine OD value at 570 nm.
compound,measurement,setting,value
"O=C(/C=C/c1ccc(O)c(O)c1)O[C@H](Cc1ccc(O)c(O)c1)C(=O)O [RA, R(+)2-{[3-(3,4-dihydroxylphenyl-(oxo-2-propenyl)oxy]3,4-dihydroxylphenylpropionic acid]}]",inhibition at 0.1 µg/mL,[1]; 12 h,9.8 ± 2.3%
same,inhibition at 0.1 µg/mL,[1]; 24 h,12.1 ± 2.2%
same,inhibition at 0.1 µg/mL,[1]; 48 h,14.4 ± 2.3%
same,inhibition at 1 µg/mL,[1]; 12 h,20.7 ± 2%
same,inhibition at 1 µg/mL,[1]; 24 h,23 ± 2%
same,inhibition at 1 µg/mL,[1]; 48 h,25.3 ± 2.1%
same,inhibition at 10 µg/mL,[1]; 12 h,37.2 ± 2.6%
same,inhibition at 10 µg/mL,[1]; 24 h,38.6 ± 1.9%
same,inhibition at 10 µg/mL,[1]; 48 h,38.9 ± 3.2%
same,inhibition at 50 µg/mL,[1]; 12 h,52.3 ± 4.7%
same,inhibition at 50 µg/mL,[1]; 24 h,54.6 ± 4.6%
same,inhibition at 50 µg/mL,[1]; 48 h,55.2 ± 3.5%
same,inhibition at 100 µg/mL,[1]; 12 h,57.2 ± 2.3%
same,inhibition at 100 µg/mL,[1]; 24 h,59.6 ± 2.1%
same,inhibition at 100 µg/mL,[1]; 48 h,61.8 ± 2.2%
same,HSC-T6 proliferation compared to the control group,[1]; different concentrations of RA,significantly inhibited HSC-T6 proliferation
same,CTGF mRNA expression rate (%),[2]; 10 mg/L,71.2 ± 8.7 %
same,CTGF mRNA expression rate (%),[2]; 50 mg/L,63.2 ± 9.2 %
same,CTGF mRNA expression in HSC-T6,[2]; 10 and 50 mg/L,significant inhibition on CTGF mRNA expression
same,OD value,[3]; HG (30 mmol/L glucose) + 10 mg/L RA,1.289 ± 0.041
same,OD value,[3]; HG (30 mmol/L glucose) + 50 mg/L RA,1.317 ± 0.077
same,OD value,[3]; NG (5 mmol/L glucose) + 10 mg/L RA,1.168 ± 0.106
same,OD value,[3]; NG (5 mmol/L glucose) + 50 mg/L RA,1.052 ± 0.036
same,PTECs proliferation induced by high level of glucose,"[3]; certain concentrations of RA, P<0.05",can inhibit PTECs proliferation induced by high level of glucose
